Reference: paper PMC9788431, “Combination of Docking-Based and Pharmacophore-Based Virtual Screening Identifies Novel Agonists That Target the Urotensin Receptor” (Molecules, 2022)
“And” between values parts separate entries of the source, which are not always exact repeats. Equal values may be shown once. “Also recorded” adds a separate entry of the source.

What was measured:
HepG2 cells [1] = test: cell viability (CCK-8); type: cell-based, human; details: 24 h
Procedure: (§1) HTLA cells (a HEK293 cell line stably expressing a tTA-dependent luciferase reporter and a β-arrestin2-TEV fusion gene) were a gift from the laboratory of R. Axel (he has given us permission to distribute them) and are maintained in DMEM supplemented with 10% FBS, 100 U/mL penicillin and 100 μg/mL streptomycin, 2 μg/mL puromycin and 100 μg/mL hygromycin B. HepG2 cells (C5 passage, human hepatoma cell line) were purchased from the National Platform of Experimental Cell Resources for Sci-Tech, Chinese Academy of Medical Sciences (Beijing, China), and 293A8 cells were the cell line HEK293A stably transfected with the UT receptor in our laboratory. HepG2 and 293A8 cells were grown in high glucose (25 mmol/L) Dulbecco’s modified Eagle’s medium (DMEM, Gibco, CA, USA) supplemented with 10% fetal bovine serum (FBS, Gibco, CA, USA), 100 U/mL penicillin and 100 µg/mL streptomycin solution (Solarbio, Beijing, China). Cells were cultured in a standard humidified incubator at 37 °C under a 5% CO2 atmosphere. The media were changed every 2 days. Subcultures were performed at a ratio of 1:3 when cells were approximately 75–85% confluent.
Cell viability was detected by Cell Counting Kit-8 (CCK-8) per the instructions of the technical manual (Dojindo, Kumamoto, Japan). In brief, the cells were seeded in a 96-well plate and incubated overnight in the cell culture incubator. After the cells were treated with compounds for a certain period, the CCK-8 test solution was added at 1/10 of the total volume. Then, the plates were incubated in the incubator for 2 h, and the absorbance at 450 nm was measured using a SpectraMax M5 microplate reader (Molecular Devices, LLC, San Jose, CA, USA).

HepG2 cells [2] = test: lactic acid release; type: cell-based, human
Procedure: as §1
(§2) Glucose consumption detection was performed as described previously. In brief, HepG2 cells in 96-well plates at a density of 8000 cells/well were treated with compounds at 37 °C, and 5% CO2. After the indicated duration, the media from cultured cells were taken for glucose and lactic acid detection. The glucose levels were detected by a blood-glucose kit from Biosino Biotechnology (Beijing, China). The amount of glucose consumption was calculated by subtracting the initial glucose level from the remaining glucose in the wells. The lactate content was measured using the lactic acid assay kit (Nanjing Jiancheng Bioengineering Institute, Nanjing, China) according to the manufacturer’s instructions.

HepG2 cells [3] = test: glucose consumption; type: cell-based, human
Procedure: as §1, §2

UT receptor [4] = molecular target: T1, UT receptor (Homo sapiens, UniProt Q9UKP6); test: intracellular calcium mobilization (Fluo-8 calcium assay); type: cell-based; details: for agonist behaviour in calcium assay: in words
T1 construct: SNAP-tag; expressed in transfected cells; host or cells: 293A8 (HEK293A stably transfected with the UT receptor); inferred, the calcium-assay paragraph names no cells
T1 sequence (Q9UKP6 1-389): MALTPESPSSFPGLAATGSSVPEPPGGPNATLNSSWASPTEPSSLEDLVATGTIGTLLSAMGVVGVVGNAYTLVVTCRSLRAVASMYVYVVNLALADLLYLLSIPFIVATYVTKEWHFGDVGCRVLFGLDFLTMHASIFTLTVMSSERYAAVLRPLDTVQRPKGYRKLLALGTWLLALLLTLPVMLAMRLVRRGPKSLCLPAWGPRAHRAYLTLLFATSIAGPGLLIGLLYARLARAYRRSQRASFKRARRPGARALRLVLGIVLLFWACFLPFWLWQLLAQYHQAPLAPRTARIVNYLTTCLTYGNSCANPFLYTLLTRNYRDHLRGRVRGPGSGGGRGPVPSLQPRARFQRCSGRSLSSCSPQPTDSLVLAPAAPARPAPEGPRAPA
Procedure: as §1
Measurement of intracellular calcium mobilization was performed using Fluo-8 Calcium Assay Kit (Applygen, Beijing, China) following the manufacturer’s instructions.

UT receptor [5] = molecular target: T1, UT receptor; test: luciferase β-arrestin recruitment-based assay; type: cell-based
Procedure: as §1
The β-arrestin recruitment-based experiments were performed according to previous reports with slight modifications. In brief, the UT receptor plasmid was transfected into HTLA cells with the transfection reagent PEI when the cell confluence reached approximately 80%. Transfected cells were seeded in 96-well plates at a density of 1.5 × 10^5 cells/well. After 24 h, the cells were treated with compounds diluted to the specified concentration using 10% FBS DMEM. Following the next 24 h incubation with compounds, the medium was removed and Bright-GloTM (Promega, Madison, WI, USA) reagent was added immediately. Then, the activity of firefly luciferase luminescence (RLUF) was measured using a SpectraMax M5 microplate reader (Molecular devices, LLC., San Jose, CA, USA).

UT receptor [6] = molecular target: T1, UT receptor; set-up: method as in ChEMBL database and others; details: antagonist; Table S1 benchmarking ligands; ref ChEMBL database and others; cited from earlier work
[7] = intracellular calcium mobilization
[8] = HTLA cells transfected with UT receptor plasmid
[9] = intracellular calcium mobilization, fluorescence-based, read-out: Calcium assay EC50
[10] = HTLA cells transfected with UT receptor plasmid, 24 h incubation, read-out: β-arrestin recruitment-based assay EC50

SMILES	IC50 (UT receptor [6])	other results
O=C(c1ccc([N+](=O)[O-])o1)N1CCN(c2ccc([N+](=O)[O-])cc2)CC1 [Compound 2]		cell viability (HepG2 cells [1]): no significant differences; lactic acid release (HepG2 cells [2]): no significant differences; glucose consumption (HepG2 cells [3]; 48 h total glucose consumption): no significant differences; EC50 (UT receptor [4]): 10200 nM; Calcium assay Emax (UT receptor [4]; [7]): 4.08; EC50 (UT receptor [5]): 37 nM; β-arrestin recruitment-based assay Emax (UT receptor [5]; [8]): 2.40
O=C(NCCN1CCC(O)(Cc2cccc(Br)c2)CC1)Nc1ccnc2ccsc12 [CHEMBL3358686]	42 nM	
COc1ccc([C@@H](CCCNC(=O)c2cnoc2C)N2C(=O)c3cccc(N4CCN([C@H](C)c5ccccc5)CC4)c3C2=O)cc1OC [CHEMBL568764]	760 nM	
C=CC(C)(C)c1c(O)cc(O)c2c(=O)c(O)c(-c3cc(O)c4c(c3)C=CC(C)(C)O4)oc12 [Compound 1]		cell viability (HepG2 cells [1]): did not affect; also recorded: without obvious cytotoxic effects; lactic acid release (HepG2 cells [2]): reduced lactic acid production; glucose consumption (HepG2 cells [3]; 48 h total glucose consumption): significantly accelerate 48 h total glucose consumption; also recorded: promote glucose utilization; agonist behaviour in calcium assay (UT receptor [4]): full potent agonist; Calcium assay Emax (UT receptor [4]; [7]): 5.62; EC50 (UT receptor [4]; [9]): 7390 nM; β-arrestin recruitment-based assay Emax (UT receptor [5]; [8]): 4.85; EC50 (UT receptor [5]; [10]): 89.7 nM
COc1cc2c(cc1OC)C(CCc1cc(F)ccc1F)N(CCNC(=O)Nc1cc(C)nc3ccccc13)CC2 (stereo not drawn) [CHEMBL1163360]	67 nM	
CN(C)CCOc1cc(NCc2ccccc2C(F)(F)F)ccc1Cl [CHEMBL2348515]	520 nM and 765 nM	
CCN1CCN(c2cccc3c2CN([C@H](CCCNS(=O)(=O)c2cccs2)c2ccc(OC)c(OC)c2)C3=O)CC1 [CHEMBL567713]	8 nM	
CCN1CCN(c2cccc3c2CN([C@H](CCCN(C)S(=O)(=O)c2cccs2)c2ccc(OC)c(OC)c2)C3=O)CC1 [CHEMBL571535]	88 nM	
COc1ccc([C@@H](CCCN(C)S(=O)(=O)c2cccs2)N2Cc3c(cccc3N3CCNCC3)C2=O)cc1OC [CHEMBL565416]	410 nM	
CN1CC[C@H](Oc2cc(NCc3ccccc3Br)ccc2C(F)(F)F)C1 [CHEMBL2348514]	821 nM	
CC(C)[C@H](NC(=O)[C@@H]1CSSC[C@H](NC(=O)[C@H](C)N)C(=O)N[C@@H](Cc2ccccc2)C(=O)N[C@@H](c2ccccc2)C(=O)N[C@@H](CCCCN)C(=O)N[C@@H](Cc2ccc(O)cc2)C(=O)N1)C(=O)O [CHEMBL3104462]	29.5 nM	
COc1cc(Br)c(S(=O)(=O)Nc2ccc(C(F)(F)F)c(OCCN(C)C)c2)cc1OC [CHEMBL2348523]	100 nM	
Cc1cc(NC(=O)NCCN2CCC(O)(Cc3ccccc3)CC2)c2ccccc2n1 [palosuran]		effect of palosuran preincubation on compound-induced intracellular calcium mobilization (UT receptor [4]; palosuran 10^−7 M, with Compounds 1, 2, 3): specifically reduced the increase in intracellular calcium mobilization
Cn1ccc2c(NC(=O)NCCN3CCC(O)(Cc4ccccc4)CC3)ccnc21 [CHEMBL3358667]	160 nM	
CC(C)[C@H](NC(=O)[C@@H]1CSSC[C@H](NC(=O)[C@H](C)N)C(=O)N[C@@H](Cc2ccccc2)C(=O)N[C@@H](C(c2ccccc2)c2ccccc2)C(=O)N[C@@H](CCCCN)C(=O)N[C@@H](Cc2ccc(O)cc2)C(=O)N1)C(=O)O [CHEMBL3104643]	277 nM	
CCN1CCN(c2cccc3c2CN([C@H](CCCNC(=O)c2cccs2)c2ccc(OC)c(OC)c2)C3=O)CC1 [CHEMBL567075]	140 nM	
O=C(NCCc1cccs1)C1(c2ccccc2)CCCC1 [Compound 3]		cell viability (HepG2 cells [1]): significantly reduced cell viability; lactic acid release (HepG2 cells [2]): reduced lactic acid production; glucose consumption (HepG2 cells [3]; at higher concentrations (10^−6 M, 10^−5 M)): significantly increased glucose consumption; agonist behaviour in calcium assay (UT receptor [4]): weak activity; Calcium assay Emax (UT receptor [4]; [7]): 2.37; EC50 (UT receptor [4]; [9]): 10600 nM; β-arrestin recruitment-based assay Emax (UT receptor [5]; [8]): 3.26; EC50 (UT receptor [5]; [10]): 44.8 nM

SMILES	IC50 (UT receptor [6])	other results
COc1ccccc1-c1ccc2cc(C(=O)NC3CCN(Cc4ccc(OC5CCNCC5)c(Br)c4)CC3)sc2c1 [CHEMBL3915656]	560 nM	
CCN1CCN(c2cccc3c2C(=O)N([C@H](CCCNS(=O)(=O)c2cccs2)c2ccc(OC)c(OC)c2)C3=O)CC1 [CHEMBL566433]	150 nM	
CN(CC(=O)N1CCCCC1CN1CCCC1)c1ccc(Cl)c(Cl)c1 (stereo not drawn) [CHEMBL254154]	631 nM	
CN1CC[C@H](Oc2cc(NCc3c(Br)ccc4c3OCO4)ccc2C(F)(F)F)C1 [CHEMBL2348518]	620 nM	
COc1ccc2sc(C(=O)NC3CCN(Cc4ccc(OC5CCNCC5)c(Br)c4)CC3)cc2c1 [CHEMBL3957806]	100 nM	
Cc1cc(NC(=O)NCCN2CCC(O)(Cc3ccccc3)CC2)c2sccc2n1 [CHEMBL3358679]	26 nM	
CCN1CCN(c2cccc3c2CN([C@H](CCCNCc2cccs2)c2ccc(OC)c(OC)c2)C3=O)CC1 [CHEMBL568123]	59 nM	
O=C(NC1CCN(Cc2ccc(OC3CCNCC3)c(Br)c2)CC1)c1cccs1 [CHEMBL3979822]	130 nM	
O=C(NC1CCN(Cc2ccc(OC3CCNCC3)c(Br)c2)CC1)c1cc2cc(Cl)ccc2s1 [CHEMBL3896625]	51 nM	
COc1cc(Br)c([S+]([O-])Cc2ccc(Cl)c(O[C@@H]3CCN(C)C3)c2)cc1OC (stereo partly drawn) [CHEMBL2348504]	245 nM	
Cc1cc2nccc(NC(=O)NCCN3CCC(O)(Cc4ccccc4)CC3)c2s1 [CHEMBL3358674]	78 nM	
CC(C)[C@H](NC(=O)[C@@H]1CSSC[C@H](NC(=O)[C@H](C)N)C(=O)N[C@@H](Cc2ccccc2)C(=O)N[C@H](Cc2cccc3ccccc23)C(=O)N[C@@H](CCCCN)C(=O)N[C@@H](Cc2ccc(O)cc2)C(=O)N1)C(=O)O [CHEMBL3104638]	46 nM	
CC(C)[C@H](NC(=O)[C@@H]1CSSC[C@H](NC(=O)[C@H](C)N)C(=O)N[C@@H](Cc2ccccc2)C(=O)N[C@@H](Cc2ccc(I)cc2)C(=O)N[C@@H](CCCCN)C(=O)N[C@@H](Cc2ccc(O)cc2)C(=O)N1)C(=O)O [CHEMBL3104639]	58 nM	
Cc1ccc(-c2ccc3cc(C(=O)NC4CCN(Cc5ccc(OC6CCNCC6)c(Br)c5)CC4)sc3c2)cc1 [CHEMBL3898238]	140 nM	
O=C(NC1CCN(Cc2ccc(OC3CCNCC3)c(Br)c2)CC1)c1cc2cc(Br)ccc2s1 [CHEMBL3915670]	86 nM	
CC(C)[C@H](NC(=O)[C@@H]1CSSC[C@H](NC(=O)[C@H](C)N)C(=O)N[C@@H](Cc2ccccc2)C(=O)N2Cc3ccccc3C[C@@H]2C(=O)N[C@@H](CCCCN)C(=O)N[C@@H](Cc2ccc(O)cc2)C(=O)N1)C(=O)O [CHEMBL3104467]	88 nM	
O=C(NC1CCN(Cc2ccc(OC3CCNCC3)c(Br)c2)CC1)c1cc2cc(F)ccc2s1 [CHEMBL3924660]	53 nM	
